Laboratory results from patent EP1879602B1, “USE OF CACAO POLYPHENOLS FOR CONTROLLING SKIN PIGMENTATION” (priority 2005, dated 2006).

System: synthèse de la mélanine
Assay: Intracellular melanin assay by spectrometry at 475 nm on reconstituted epidermis (Skinetic®) co-cultured with melanocytes
Type: cell-based, humaine
Details: positive control, concentration not given
From the text: L'activité sur la pigmentation (effet dépigmentant et effet pigmentant) a été étudiée à travers • l'évaluation de l'activité de la tyrosinase • l'évaluation de la synthèse de la mélanine (étude qualitative de la mélanine intracellulaire par spectrométrie à 475 nm)
L'étude a été faite sur des épidermes reconstitués (Skinetic®). Des kératinocytes d'origine humaine sont cultivés dans un milieu défini (MCDB 153 modifié) et supplémentés. Les cellules sont cultivées pendant 10 jours à l'interface air/liquide, le milieu de culture étant changé tous les deux jours.
Les épidermes ainsi formés sont mis en co-culture avec des mélanocytes de phototypes II, IV et VI sur des filtres en polycarbonate. L'étude est réalisée entre le 11^ème et le 17^ème jour de la culture.
L'essai est conduit en triplicate après 3 jours de contact.
L'évaluation de la synthèse de la mélanine intracellulaire (étude qualitative) a été effectuée comme indiqué ci-dessus par spectrométrie à 475 nm après digestion des explants de peau humaine puis dissolution dans NaOH 1N et du diméthyl sulfoxyde pendant 30 minutes.

For `O=c1cc(CO)occ1O` [acide kojique], the “%” value (change vs negative control, 4320 min) was -42% and the “Absorbance (475 nm)” value (3 days contact, triplicate) was 0,107 ± 0,01.
